Here are results for 48 compounds from US8946266B2, “Substituted triazole and imidazole derivatives as gamma secretase modulators” (Janssen Pharmaceuticals, Inc., priority 2009, dated 2015).

Experiment [1] has as its system Aβ42. Kind of experiment: γ-secretase-modulating activity, Method 2: Aβ42 Alphalisa in supernatant of SKNBE2 cells carrying APP 695-wild type (Table 3b). The experiment is classed as cell-based. The settings on record: overnight. The protocol:
(§1) Screening was carried out using SKNBE2 cells carrying the APP 695-wild type, grown in Dulbecco's Modified Eagle's Medium/Nutrient mixture F-12 (DMEM/NUT-mix F-12) (HAM) provided by Invitrogen (cat no. 10371-029) containing 5% Serum/Fe supplemented with 1% non-essential amino acids, 1-glutamine 2 mM, Hepes 15 mM, penicillin 50 U/ml (units/ml) en streptomycin 50 μg/ml. Cells were grown to near confluency.
(§2) The screening was performed using a modification of the assay as described in Citron et al (1997) Nature Medicine 3: 67. Briefly, cells were plated in a 384-well plate at 10^4 cells/well in Ultraculture (Lonza, BE12-725F) supplemented with 1% glutamine (Invitrogen, 25030-024), 1% non-essential amino acid (NEAA), penicillin 50 U/ml en streptomycin 50 μg/ml in the presence of test compound at different test concentrations. The cell/compound mixture was incubated overnight at 37° C., 5% CO2. The next day the media were assayed by two sandwich immuno-assays, for Aβ42 and Aβtotal.
(§3) Aβtotal and Aβ42 concentrations were quantified in the cell supernatant using the Aphalisa technology (Perkin Elmer). Alphalisa is a sandwich assay using biotinylated antibody attached to streptavidin coated donorbeads and antibody conjugated to acceptor beads. In the presence of antigen, the beads come into close proximity. The excitation of the donor beads provokes the release of singlet oxygen molecules that trigger a cascade of energy transfer in the acceptor beads, resulting in light emission. To quantify the amount of Aβ42 in the cell supernatant, monoclonal antibody specific to the C-terminus of Aβ42 (JRF/cAβ42/26) was coupled to the receptor beads and biotinylated antibody specific to the N-terminus of Aβ (JRF/AβN/25) was used to react with the donor beads. To quantify the amount of Aβ total in the cell supernatant, monoclonal antibody specific to the N-terminus of Aβ (JRF/AβN/25) was coupled to the receptor beads and biotinylated antibody specific to the mid region of Aβ (biotinylated 4G8) was used to react with the donor beads.
To obtain the values reported in Table 3b, the data were calculated as percentage of the maximum amount of amyloid Beta 42 measured in the absence of the test compound.
(§4) The sigmoidal dose response curves were analyzed using non-linear regression analysis with percentage of the control plotted against the log concentration of the compound. A 4-parameter equation was used to determine the IC50.
(§5) The IC50 values are shown in Table 3b (Aβtot means Aβtotal).
(Alpha assays give light when donor and acceptor beads are brought close together.)

For experiment [2], the system named is Aβtotal. Briefly: γ-secretase-modulating activity, Method 2: Aβtotal Alphalisa in supernatant of SKNBE2 cells carrying APP 695-wild type (Table 3b). The experiment is classed as cell-based. The settings on record: overnight, read-out: IC50 Aβtot. The protocol:
as §1, §2, §3, §4, §5

pIC50: −log10 of the molar value. Where only a bound is given, the exact number is not on record here.

Turning to `COc1cc(-c2nc(Nc3ccc(F)c(F)c3)n(C)n2)ccc1-n1cnc(C)c1` [Compound 112], the pIC50 (in general, −log10 of the IC50, conventionally taken in molar units) in experiment [1] is 6.89; in experiment [2] it was 5.04.
As for `COc1cc(-c2nc(Nc3cc(F)ccc3Cl)n(C)n2)ccc1-n1cnc(C)c1` [Compound 113], the negative logarithm of the IC50 (pIC50) in experiment [1] was 7.22; in experiment [2] it was less than 5.00.
For `COc1cc(-c2nc(Nc3cc(Cl)cc(Cl)c3)n(C)n2)ccc1-n1cnc(C)c1` [Compound 115] the same measures were 6.99 and less than 5.00.
`COc1cc(-c2nc(Nc3c(F)cccc3F)n(C)n2)ccc1-n1cnc(C)c1` [Compound 116]: the negative-log IC50 (pIC50) was 6.70 in experiment [1] and less than 5.00 in experiment [2].
For `COc1cc(-c2nc(Nc3cccc(Cl)c3F)n(C)n2)ccc1-n1cnc(C)c1` [Compound 118] the same measures were 7.05 and less than 5.00.
In the same order, the values of `COc1cc(-c2nc(Nc3cccc(Cl)c3Cl)n(C)n2)ccc1-n1cnc(C)c1` [Compound 119] are 7.27 and less than 5.00.
Regarding `COc1cc(-c2nc(Nc3cc(F)c(F)cc3I)n(C)n2)ccc1-n1cnc(C)c1` [Compound 120], the pIC50 was 6.91 in experiment [1] and less than 5.00 in experiment [2].
For the compound `COc1cc(-c2nc(Nc3cc(F)c(F)cc3Cl)n(C)n2)ccc1-n1cnc(C)c1` [Compound 121], the negative-log IC50 (pIC50) in experiment [1] is 6.91; in experiment [2], less than 5.00.
In the case of `COc1cc(-c2nc(Nc3c(F)ccc(Cl)c3F)n(C)n2)ccc1-n1cnc(C)c1` [Compound 122], the negative-log IC50 (pIC50) is 7.18 in experiment [1] and less than 4.82 in experiment [2].
For `COc1cc(-c2nc(Nc3cccc(F)c3F)n(C)n2)ccc1-n1cnc(C)c1` [Compound 124] the same measures were 6.82 and less than 5.00.
In the same order, the values of `COc1cc(-c2nc(Nc3ccc(Cl)cc3F)n(C)n2)ccc1-n1cnc(C)c1` [Compound 126] are 6.79 and less than 5.00.
`COc1cc(-c2nc(Nc3c(F)ccc(Br)c3F)n(C)n2)ccc1-n1cnc(C)c1` [Compound 127]: the pIC50 in experiment [1] is 7.18; in experiment [2], less than 5.00.
For `COc1cc(-c2nc(Nc3cc(C(F)(F)F)ccc3C)n(C)n2)ccc1-n1cnc(C)c1` [Compound 131] the same measures were 8.10 and 5.20.
With `COc1cc(-c2nc(Nc3cccc(C(F)(F)F)c3)n(C(C)C)n2)ccc1-n1cnc(C)c1` [Compound 133], the negative logarithm of the IC50 (pIC50) is 7.51 in experiment [1] and 5.63 in experiment [2].
`COc1cc(-c2nc(Nc3ccc(C(F)(F)F)cc3F)n(C)n2)ccc1-n1cnc(C)c1` [Compound 134]: the negative logarithm of the IC50 (pIC50) in experiment [1] was 6.96; in experiment [2], less than 5.00.
As for `CCn1nc(-c2ccc(-n3cnc(C)c3)c(OC)c2)nc1Nc1cc(C(F)(F)F)ccc1F` [Compound 135], the pIC50 in experiment [1] is 7.59; in experiment [2], less than 5.00.
For `COc1cc(-c2nc(Nc3cc(C(F)(F)F)ccc3F)n(CCC#N)n2)ccc1-n1cnc(C)c1` [Compound 137] the same measures were 7.39 and less than 5.00.
For `Cc1cn(-c2ccc(-c3nc(Nc4cc(C(F)(F)F)ccc4F)n(C)n3)cc2OC(F)(F)F)cn1` [Compound 139] the same measures were 6.10 and less than 5.00.
In the same order, the values of `COc1cc(-c2nc(Nc3cc(F)c(C(F)(F)F)cc3F)n(C)n2)ccc1-n1cnc(C)c1` [Compound 141] are 7.33 and less than 5.00.
Turning to `COc1cc(-c2nc(Nc3cc(F)c(F)cc3C(F)(F)F)n(C)n2)ccc1-n1cnc(C)c1` [Compound 142], the pIC50 is 7.23 in experiment [1] and less than 5.00 in experiment [2].
With `COc1cc(-c2nc(Nc3cc(Cl)ccc3C(F)(F)F)n(C)n2)ccc1-n1cnc(C)c1` [Compound 143], the pIC50 in experiment [1] was 7.52; in experiment [2], less than 5.00.
On to `COc1cc(-c2nc(Nc3cccc(C(F)(F)F)c3)n(CC(F)(F)F)n2)ccc1-n1cnc(C)c1` [Compound 145], for which the pIC50 in experiment [1] was 7.42; in experiment [2] it was 5.65.
For `CCn1nc(-c2ccc(-n3cnc(C)c3)c(OC)c2)nc1Nc1ccccc1C(F)(F)F` [Compound 147], the values for the pIC50 in experiment [1] and in experiment [2] were 7.39 and less than 5.00, respectively.
In the same order, the values of `Cc1cn(-c2ccc(-c3nc(Nc4ccc(F)cc4C(F)(F)F)n(C)n3)cc2)cn1` [Compound 149] are 5.77 and less than 5.00.
Turning to `COc1cc(-c2nc(Nc3ccc(C(F)(F)F)cc3)n(C)n2)ccc1-n1cnc(C)c1` [Compound 151], the values for the pIC50 in experiment [1] and in experiment [2] were 7.57 and 5.39, respectively.
Regarding `COc1cc(-c2nc(Nc3cccc(F)c3C(F)(F)F)n(C)n2)ccc1-n1cnc(C)c1` [Compound 155], the negative logarithm of the IC50 (pIC50) in experiment [1] was 7.02; in experiment [2], less than 5.00.
For `COc1cc(-c2nc(Nc3ccc(Cl)cc3C(F)(F)F)n(C)n2)ccc1-n1cnc(C)c1` [Compound 156] the same measures were 7.48 and less than 5.00.
In the case of `COc1cc(-c2nc(Nc3cc(F)cc(C(F)(F)F)c3)n(C)n2)ccc1-n1cnc(C)c1` [Compound 159], the results for the negative logarithm of the IC50 (pIC50) in experiment [1] and in experiment [2] were 7.68 and less than 5.00, respectively.
On to `COc1nc(-c2nc(Nc3cc(C(F)(F)F)ccc3Cl)n(C)n2)ccc1-n1cnc(C)c1` [Compound 160], for which the pIC50 in experiment [1] was 8.22; in experiment [2], less than 5.00.
For `COc1cc(-c2nc(Nc3cccc(C(F)(F)F)c3Cl)n(C)n2)ccc1-n1cnc(C)c1` [Compound 163] the same measures were 7.21 and less than 5.00.
For `COc1cc(-c2nc(Nc3cccc(C(F)(F)F)c3C)n(C)n2)ccc1-n1cnc(C)c1` [Compound 164] the same measures were 7.52 and less than 5.00.
Regarding `COc1cc(-c2nc3n(n2)CCOC3c2cc(OC(F)(F)F)ccc2F)ccc1-n1cnc(C)c1` (stereo not drawn) [Compound 165], the results for the pIC50 in experiment [1] and in experiment [2] were 6.86 and less than 5.00, respectively.
For `COc1cc(-c2nc3n(n2)CCOC3c2ccc(F)cc2C)ccc1-n1cnc(C)c1` (stereo not drawn) [Compound 166] the same measures were 7.19 and less than 5.00.
In the same order, the values of `COc1cc(-c2nc(Nc3cc(F)ccc3C(F)(F)F)n(C)n2)ccc1-n1cnc(C)c1` [Compound 168] are 7.15 and less than 5.00.
Consider `Cc1cn(-c2ccc(-c3nc(Nc4ccc(F)cc4C(F)(F)F)n(C)n3)nc2)cn1` [Compound 170], for which the results for the pIC50 in experiment [1] and in experiment [2] were 5.49 and less than 5.00, respectively.
In the same order, the values of `COc1nc(-c2nc(Nc3ccc(F)c(C(F)(F)F)c3)n(C)n2)ccc1-n1cnc(C)c1` [Compound 171] are 7.38 and less than 4.82.
In the same order, the values of `COc1cc(-c2nc(Nc3cc(C(F)(F)F)c(F)cc3F)n(C)n2)ccc1-n1cnc(C)c1` [Compound 172] are 7.21 and less than 5.00.
In the same order, the values of `COc1cc(-c2nc(Nc3cc(F)ccc3C)n(C)n2)ccc1-n1cnc(C)c1` [Compound 173] are 7.22 and less than 5.00.
With `COc1cc(-c2nc(Nc3cc(Cl)ccc3C)n(C)n2)ccc1-n1cnc(C)c1` [Compound 174], the pIC50 in experiment [1] was 7.70; in experiment [2], 5.13.
Turning to `COc1cc(-c2nc(Nc3ccccc3C(F)(F)F)n(C(C)C)n2)ccc1-n1cnc(C)c1` [Compound 176], the negative-log IC50 (pIC50) in experiment [1] is 7.34; in experiment [2] it was less than 5.00.
Consider `COc1cc(-c2nc(Nc3cc(C(F)(F)F)ccc3F)n(C(C)C)n2)ccc1-n1cnc(C)c1` [Compound 178], for which the values for the negative-log IC50 (pIC50) in experiment [1] and in experiment [2] were 7.68 and 5.10, respectively.
For `COc1cc(-c2nc(Nc3cc(Cl)ccc3OC(F)(F)F)n(C)n2)ccc1-n1cnc(C)c1` [Compound 183] the same measures were 7.89 and less than 5.00.
For `COc1cccc(Nc2nc(-c3ccc(-n4cnc(C)c4)c(OC)c3)nn2C)c1` [Compound 186] the same measures were 7.11 and less than 5.00.
In the same order, the values of `COc1ccccc1Nc1nc(-c2ccc(-n3cnc(C)c3)c(OC)c2)nn1C` [Compound 187] are 6.75 and less than 5.00.
For the compound `COc1cc(Cl)ccc1Nc1nc(-c2ccc(-n3cnc(C)c3)c(OC)c2)nn1C` [Compound 188], the pIC50 in experiment [1] is 6.75; in experiment [2], less than 5.00.
As to `COc1ccc(Cl)c(Nc2nc(-c3ccc(-n4cnc(C)c4)c(OC)c3)nn2C)c1` [Compound 189], the results for the pIC50 in experiment [1] and in experiment [2] were 7.72 and less than 5.00, respectively.
For the compound `COc1ccc(F)cc1Nc1nc(-c2ccc(-n3cnc(C)c3)c(OC)c2)nn1C` [Compound 190], the figures for the negative-log IC50 (pIC50) in experiment [1] and in experiment [2] were 6.67 and less than 5.00, respectively.
For `COc1cc(Nc2nc(-c3ccc(-n4cnc(C)c4)c(OC)c3)nn2C)ccc1Cl` [Compound 191] the same measures were 7.55 and less than 5.00.
